Results taken from the kinase profiling compilation of Christmann-Franck et al. (2016).

Key:
Details in all cases: compound 10.0 µM
ACVR1 (human) = ACVR1 (human) (UniProt Q04771)
ACVR1B (human) = ACVR1B (human) (UniProt P36896)
ACVR2B (human) = ACVR2B (human) (UniProt Q13705)
CAMK2A (human) = CAMK2A (human) (UniProt Q9UQM7)
CAMKK2 (human) = CAMKK2 (human) (UniProt Q96RR4)
CDK4 CCND3 (human) = CDK4 CCND3 (human) (UniProt P11802+P30281)
CRK2 (P.falciparum) = CRK2 (P.falciparum) (UniProt P61075)
CSK (human) = CSK (human) (UniProt P41240)
EPHA5 (human) = EPHA5 (human) (UniProt P54756)
GRK7 (human) = GRK7 (human) (UniProt Q8WTQ7)
ICK (human) = ICK (human) (UniProt Q9UPZ9)
IKBKB (human) = IKBKB (human) (UniProt O14920)
INSRR (human) = INSRR (human) (UniProt P14616)
IRAK4 (human) = IRAK4 (human) (UniProt Q9NWZ3)
LRRK2 (human) = LRRK2 (human) (UniProt Q5S007)
Chain of LRRK2 (human) (Q5S007 whole entry, looked up): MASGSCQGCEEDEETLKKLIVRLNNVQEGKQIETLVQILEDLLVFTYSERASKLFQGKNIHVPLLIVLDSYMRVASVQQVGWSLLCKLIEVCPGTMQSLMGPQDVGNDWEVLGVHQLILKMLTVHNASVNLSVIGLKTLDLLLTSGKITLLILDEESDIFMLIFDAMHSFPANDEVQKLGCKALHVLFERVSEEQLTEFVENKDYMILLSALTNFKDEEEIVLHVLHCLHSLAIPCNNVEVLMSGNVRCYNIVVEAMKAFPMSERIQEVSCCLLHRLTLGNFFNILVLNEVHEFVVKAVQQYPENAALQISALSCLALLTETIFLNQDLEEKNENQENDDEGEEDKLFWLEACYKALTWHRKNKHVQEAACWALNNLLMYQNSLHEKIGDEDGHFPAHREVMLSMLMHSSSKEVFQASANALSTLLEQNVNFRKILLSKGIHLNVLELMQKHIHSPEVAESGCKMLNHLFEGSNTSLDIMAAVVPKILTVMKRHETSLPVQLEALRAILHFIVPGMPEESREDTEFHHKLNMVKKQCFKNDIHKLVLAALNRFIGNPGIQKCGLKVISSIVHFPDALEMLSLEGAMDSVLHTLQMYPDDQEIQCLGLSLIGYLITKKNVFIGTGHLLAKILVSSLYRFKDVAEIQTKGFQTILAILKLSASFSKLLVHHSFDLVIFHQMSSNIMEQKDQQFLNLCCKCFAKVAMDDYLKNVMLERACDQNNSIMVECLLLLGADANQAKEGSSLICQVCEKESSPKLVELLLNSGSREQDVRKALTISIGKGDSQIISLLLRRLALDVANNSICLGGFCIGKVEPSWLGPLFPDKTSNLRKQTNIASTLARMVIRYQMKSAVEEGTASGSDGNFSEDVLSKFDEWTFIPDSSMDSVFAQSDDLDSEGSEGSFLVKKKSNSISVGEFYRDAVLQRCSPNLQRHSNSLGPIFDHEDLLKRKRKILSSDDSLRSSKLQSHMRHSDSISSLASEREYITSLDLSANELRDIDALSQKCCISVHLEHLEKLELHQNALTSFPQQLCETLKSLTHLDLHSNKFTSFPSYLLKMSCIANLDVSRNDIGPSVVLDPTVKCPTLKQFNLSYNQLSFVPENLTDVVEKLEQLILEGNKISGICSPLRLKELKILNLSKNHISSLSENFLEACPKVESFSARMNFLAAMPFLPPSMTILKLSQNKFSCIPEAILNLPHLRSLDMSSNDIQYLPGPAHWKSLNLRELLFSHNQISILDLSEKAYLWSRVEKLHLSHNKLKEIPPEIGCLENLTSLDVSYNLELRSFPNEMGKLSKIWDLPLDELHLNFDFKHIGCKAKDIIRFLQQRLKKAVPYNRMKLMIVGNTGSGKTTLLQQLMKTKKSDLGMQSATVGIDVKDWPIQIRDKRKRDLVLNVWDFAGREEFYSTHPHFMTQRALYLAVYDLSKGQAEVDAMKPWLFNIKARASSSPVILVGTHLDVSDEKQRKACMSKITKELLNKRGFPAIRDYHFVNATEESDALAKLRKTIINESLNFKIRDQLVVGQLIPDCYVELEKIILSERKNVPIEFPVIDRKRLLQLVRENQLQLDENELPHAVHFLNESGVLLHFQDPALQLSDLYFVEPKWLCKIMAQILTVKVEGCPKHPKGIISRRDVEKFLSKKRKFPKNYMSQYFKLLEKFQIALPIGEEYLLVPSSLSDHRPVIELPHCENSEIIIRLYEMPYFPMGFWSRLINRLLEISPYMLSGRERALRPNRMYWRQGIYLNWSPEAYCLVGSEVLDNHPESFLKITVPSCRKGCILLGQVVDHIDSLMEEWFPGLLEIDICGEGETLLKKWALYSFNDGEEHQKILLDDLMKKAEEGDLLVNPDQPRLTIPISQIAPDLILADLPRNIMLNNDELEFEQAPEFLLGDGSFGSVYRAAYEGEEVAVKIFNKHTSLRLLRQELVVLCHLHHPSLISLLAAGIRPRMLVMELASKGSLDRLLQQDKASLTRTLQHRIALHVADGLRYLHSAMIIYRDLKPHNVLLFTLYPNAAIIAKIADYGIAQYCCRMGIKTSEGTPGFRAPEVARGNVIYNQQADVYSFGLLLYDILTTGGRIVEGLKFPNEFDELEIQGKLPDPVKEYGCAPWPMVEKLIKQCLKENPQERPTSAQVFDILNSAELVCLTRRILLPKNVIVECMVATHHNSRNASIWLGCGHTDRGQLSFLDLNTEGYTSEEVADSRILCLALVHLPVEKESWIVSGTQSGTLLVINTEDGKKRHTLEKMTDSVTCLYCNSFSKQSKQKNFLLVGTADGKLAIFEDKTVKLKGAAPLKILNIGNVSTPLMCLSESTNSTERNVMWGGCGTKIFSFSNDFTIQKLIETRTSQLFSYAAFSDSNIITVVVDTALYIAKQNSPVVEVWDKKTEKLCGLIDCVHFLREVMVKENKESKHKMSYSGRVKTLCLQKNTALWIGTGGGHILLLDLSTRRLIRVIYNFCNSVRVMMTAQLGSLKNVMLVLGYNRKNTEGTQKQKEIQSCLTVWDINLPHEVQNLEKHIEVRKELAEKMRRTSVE

MAK (human) = MAK (human) (UniProt P20794)
MAP2K2 (human) = MAP2K2 (human) (UniProt P36507)
MAP3K1 (human) = MAP3K1 (human) (UniProt Q13233)
MAP3K10 (human) = MAP3K10 (human) (UniProt Q02779)
MAP3K2 (human) = MAP3K2 (human) (UniProt Q9Y2U5)
MAP3K4 (human) = MAP3K4 (human) (UniProt Q9Y6R4)
MAP3K9 (human) = MAP3K9 (human) (UniProt P80192)
MAPK8 (human) = MAPK8 (human) (UniProt P45983)
MELK (human) = MELK (human) (UniProt Q14680)
MKNK1 (human) = MKNK1 (human) (UniProt Q9BUB5)
MST4 (human) = MST4 (human) (UniProt Q9P289)
NEK11 (human) = NEK11 (human) (UniProt Q8NG66)
PIK3C2B (human) = PIK3C2B (human) (UniProt O00750)
PIM3 (human) = PIM3 (human) (UniProt Q86V86)
PLK3 (human) = PLK3 (human) (UniProt Q9H4B4)
PLK4 (human) = PLK4 (human) (UniProt O00444)
PRKAA2 (human) = PRKAA2 (human) (UniProt P54646)
PRKG2 (human) = PRKG2 (human) (UniProt Q13237)
[1] = test system: RET (human), P07949 [M918T]
ROS1 (human) = ROS1 (human) (UniProt P08922)
Chain of ROS1 (human) (P08922 whole entry, looked up): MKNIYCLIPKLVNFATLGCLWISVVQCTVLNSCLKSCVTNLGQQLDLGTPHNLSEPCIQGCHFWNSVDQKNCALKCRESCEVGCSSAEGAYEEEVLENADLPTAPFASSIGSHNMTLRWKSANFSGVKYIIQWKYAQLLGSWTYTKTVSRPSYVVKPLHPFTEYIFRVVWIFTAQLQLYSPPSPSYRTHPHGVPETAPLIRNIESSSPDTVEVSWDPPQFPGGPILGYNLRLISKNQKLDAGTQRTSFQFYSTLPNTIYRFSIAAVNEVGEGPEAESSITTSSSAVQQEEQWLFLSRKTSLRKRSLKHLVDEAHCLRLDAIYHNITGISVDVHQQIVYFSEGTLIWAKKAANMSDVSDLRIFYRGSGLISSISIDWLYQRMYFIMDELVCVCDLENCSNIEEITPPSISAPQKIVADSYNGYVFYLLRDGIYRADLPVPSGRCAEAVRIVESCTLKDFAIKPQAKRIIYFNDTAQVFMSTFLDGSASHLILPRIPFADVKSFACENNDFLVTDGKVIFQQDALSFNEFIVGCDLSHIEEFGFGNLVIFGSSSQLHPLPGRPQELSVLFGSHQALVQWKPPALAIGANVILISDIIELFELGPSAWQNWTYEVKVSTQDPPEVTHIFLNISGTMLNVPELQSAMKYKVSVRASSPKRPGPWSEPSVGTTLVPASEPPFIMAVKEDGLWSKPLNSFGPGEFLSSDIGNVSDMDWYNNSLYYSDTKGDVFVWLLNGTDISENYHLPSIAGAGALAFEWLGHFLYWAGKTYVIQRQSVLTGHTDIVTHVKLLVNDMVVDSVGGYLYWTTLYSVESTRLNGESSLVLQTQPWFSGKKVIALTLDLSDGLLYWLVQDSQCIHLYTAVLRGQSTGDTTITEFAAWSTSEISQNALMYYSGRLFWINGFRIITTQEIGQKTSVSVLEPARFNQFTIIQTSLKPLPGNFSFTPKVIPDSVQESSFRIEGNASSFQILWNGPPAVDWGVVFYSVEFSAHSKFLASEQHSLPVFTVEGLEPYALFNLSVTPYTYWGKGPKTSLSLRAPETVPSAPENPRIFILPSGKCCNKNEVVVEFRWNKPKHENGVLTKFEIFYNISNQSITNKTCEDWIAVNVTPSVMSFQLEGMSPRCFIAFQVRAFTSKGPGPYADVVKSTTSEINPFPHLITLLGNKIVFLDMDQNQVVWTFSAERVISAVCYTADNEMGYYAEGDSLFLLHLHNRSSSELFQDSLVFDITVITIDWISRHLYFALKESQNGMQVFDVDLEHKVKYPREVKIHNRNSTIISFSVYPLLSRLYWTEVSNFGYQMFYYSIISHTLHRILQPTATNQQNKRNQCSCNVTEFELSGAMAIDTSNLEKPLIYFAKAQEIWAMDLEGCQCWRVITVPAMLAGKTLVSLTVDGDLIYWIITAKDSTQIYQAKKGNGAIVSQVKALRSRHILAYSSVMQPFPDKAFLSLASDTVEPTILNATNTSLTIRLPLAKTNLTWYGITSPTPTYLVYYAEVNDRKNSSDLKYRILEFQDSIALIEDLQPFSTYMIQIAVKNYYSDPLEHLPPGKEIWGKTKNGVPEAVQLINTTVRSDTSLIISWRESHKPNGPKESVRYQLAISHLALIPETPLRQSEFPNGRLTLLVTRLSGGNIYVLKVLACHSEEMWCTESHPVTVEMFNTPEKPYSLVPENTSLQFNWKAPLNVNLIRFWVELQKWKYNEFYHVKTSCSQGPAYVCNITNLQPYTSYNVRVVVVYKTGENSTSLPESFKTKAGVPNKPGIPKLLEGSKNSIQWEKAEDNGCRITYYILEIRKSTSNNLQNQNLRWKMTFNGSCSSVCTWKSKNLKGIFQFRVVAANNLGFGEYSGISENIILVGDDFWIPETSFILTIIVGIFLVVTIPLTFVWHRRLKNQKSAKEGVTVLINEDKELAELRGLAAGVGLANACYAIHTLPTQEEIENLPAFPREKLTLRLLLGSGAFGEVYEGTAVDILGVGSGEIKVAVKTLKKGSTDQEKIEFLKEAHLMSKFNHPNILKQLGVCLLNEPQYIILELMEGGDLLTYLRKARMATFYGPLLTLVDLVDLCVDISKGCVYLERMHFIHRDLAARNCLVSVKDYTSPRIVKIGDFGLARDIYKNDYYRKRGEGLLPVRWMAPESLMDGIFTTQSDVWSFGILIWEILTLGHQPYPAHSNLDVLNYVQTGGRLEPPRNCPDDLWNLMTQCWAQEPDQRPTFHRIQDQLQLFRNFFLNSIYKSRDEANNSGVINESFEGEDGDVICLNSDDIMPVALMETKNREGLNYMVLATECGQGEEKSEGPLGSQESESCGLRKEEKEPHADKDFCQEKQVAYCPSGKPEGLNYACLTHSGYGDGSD

RPS6KA2 KD2 (human) = RPS6KA2 KD2 (human) (UniProt Q15349)
STK32A (human) = STK32A (human) (UniProt Q8WU08)
STK38L (human) = STK38L (human) (UniProt Q9Y2H1)
TESK1 (human) = TESK1 (human) (UniProt Q15569)
TNK2 (human) = TNK2 (human) (UniProt Q07912)
WEE1 (human) = WEE1 (human) (UniProt P30291)

Chain of CRK2 (P.falciparum) (P61075 whole entry, looked up): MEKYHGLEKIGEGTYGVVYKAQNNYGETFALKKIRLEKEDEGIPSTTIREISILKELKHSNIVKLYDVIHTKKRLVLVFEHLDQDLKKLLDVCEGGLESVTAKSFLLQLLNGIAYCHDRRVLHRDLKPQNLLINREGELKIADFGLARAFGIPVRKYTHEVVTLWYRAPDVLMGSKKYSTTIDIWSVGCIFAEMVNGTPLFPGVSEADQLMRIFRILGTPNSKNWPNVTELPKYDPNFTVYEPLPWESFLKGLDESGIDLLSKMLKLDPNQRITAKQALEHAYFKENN

SMILES: CNC(=O)c1cc(Oc2ccc(NC(=O)Nc3ccc(Cl)c(C(F)(F)F)c3)cc2)ccn1
- per cent of control (ACVR1 (human)): 100%
- per cent of control (ACVR1B (human)): 56%
- per cent of control (ACVR2B (human)): 68%
- per cent of control (CAMK2A (human)): 93%
- per cent of control (CAMKK2 (human)): 100%
- per cent of control (CDK4 CCND3 (human)): 100%
- per cent of control (CRK2 (P.falciparum)): 59%
- per cent of control (CSK (human)): 52%
- per cent of control (EPHA5 (human)): 16%
- per cent of control (GRK7 (human)): 100%
- per cent of control (ICK (human)): 100%
- per cent of control (IKBKB (human)): 100%
- per cent of control (INSRR (human)): 86%
- per cent of control (IRAK4 (human)): 100%
- per cent of control (LRRK2 (human)): 86%
- per cent of control (MAK (human)): 38%
- per cent of control (MAP2K2 (human)): 88%
- per cent of control (MAP3K1 (human)): 89%
- per cent of control (MAP3K10 (human)): 85%
- per cent of control (MAP3K2 (human)): 100%
- per cent of control (MAP3K4 (human)): 94%
- per cent of control (MAP3K9 (human)): 100%
- per cent of control (MAPK8 (human)): 88%
- per cent of control (MELK (human)): 83%
- per cent of control (MKNK1 (human)): 1.6%
- per cent of control (MST4 (human)): 99%
- per cent of control (NEK11 (human)): 99%
- per cent of control (PIK3C2B (human)): 100%
- per cent of control (PIM3 (human)): 100%
- per cent of control (PLK3 (human)): 100%
- per cent of control (PLK4 (human)): 46%
- per cent of control (PRKAA2 (human)): 60%
- per cent of control (PRKG2 (human)): 100%
- per cent of control [1]: 0%
- per cent of control (ROS1 (human)): 79%
- per cent of control (RPS6KA2 KD2 (human)): 59%
- per cent of control (STK32A (human)): 100%
- per cent of control (STK38L (human)): 95%
- per cent of control (TESK1 (human)): 72%
- per cent of control (TNK2 (human)): 99%
- per cent of control (WEE1 (human)): 100%

SMILES: CNC(=O)c1cc(Oc2ccc(NC(=O)Nc3ccc(Cl)c(C(F)(F)F)c3)cc2)cc[n+]1[O-]
- per cent of control (ACVR1 (human)): 100%
- per cent of control (ACVR1B (human)): 44%
- per cent of control (ACVR2B (human)): 22%
- per cent of control (CAMK2A (human)): 96%
- per cent of control (CAMKK2 (human)): 68%
- per cent of control (CDK4 CCND3 (human)): 62%
- per cent of control (CRK2 (P.falciparum)): 100%
- per cent of control (CSK (human)): 1%
- per cent of control (EPHA5 (human)): 15%
- per cent of control (GRK7 (human)): 100%
- per cent of control (ICK (human)): 100%
- per cent of control (IKBKB (human)): 61%
- per cent of control (INSRR (human)): 86%
- per cent of control (IRAK4 (human)): 100%
- per cent of control (LRRK2 (human)): 80%
- per cent of control (MAK (human)): 35%
- per cent of control (MAP2K2 (human)): 84%
- per cent of control (MAP3K1 (human)): 100%
- per cent of control (MAP3K10 (human)): 88%
- per cent of control (MAP3K2 (human)): 100%
- per cent of control (MAP3K4 (human)): 93%
- per cent of control (MAP3K9 (human)): 100%
- per cent of control (MAPK8 (human)): 13%
- per cent of control (MELK (human)): 65%
- per cent of control (MKNK1 (human)): 1%
- per cent of control (MST4 (human)): 49%
- per cent of control (NEK11 (human)): 100%
- per cent of control (PIK3C2B (human)): 100%
- per cent of control (PIM3 (human)): 100%
- per cent of control (PLK3 (human)): 100%
- per cent of control (PLK4 (human)): 5.2%
- per cent of control (PRKAA2 (human)): 49%
- per cent of control (PRKG2 (human)): 100%
- per cent of control [1]: 0%
- per cent of control (ROS1 (human)): 73%
- per cent of control (RPS6KA2 KD2 (human)): 42%
- per cent of control (STK32A (human)): 92%
- per cent of control (STK38L (human)): 100%
- per cent of control (TESK1 (human)): 55%
- per cent of control (TNK2 (human)): 100%
- per cent of control (WEE1 (human)): 100%
